# Test results taken from US10723998B2, “Application of ethyl p-methoxycinnamate and derivatives thereof in maintaining self-renewal and pluripotency of stem cells” (NORTHEAST NORMAL UNIVERSITY, priority 2015, dated 2020).
# Test system: Oct4 promoter
# Assay: Luciferase reporter gene assay of derivatives on Oct4 expression (co-transfection with pCMV-β-gal) in P19 cells
# Format: cell-based, mouse
# Conditions: 5 μg/mL, 12-24 h, DMSO control, FIG. 6
# Procedure: The effect of derivatives of ethyl p-methoxycinnamate on Oct4 expression was assayed by a luciferase reporter gene method, the derivatives including diethyl 4-methoxybenzalmalonate, ethyl 3-(3-methoxy-4-methoxycarbonylmethoxyphenyl)acrylate, diethyl 4-acetoxybenzylidenemalonate, chlorogenic acid, ethyl cinnamate, 3-cinnamoyloxypropyl 3-propylacrylate, ethyl 2-cyano-3,3-diphenylacrylate, ethyl 2,6-dichlorocinnamate, diethyl 4-chlorobenzylidenemalonate, ethyl 4-aminocinnate, ethyl 3-cyanocinnamate, ethyl 4-nitrocinnamate, 3-[3-(4-methoxyphenyl)acryloyloxymethyl]benzyl 3-(4-methoxyphenyl)acrylate, 4-[3-(4-methoxyphenyl)acryloyloxy]butyl-2-ynyl 3-(4-methoxyphenyl)acrylate, ethyl indole-2-carboxylate, and ethyl 6-methoxy-1-benzofuran-2-carboxylate.
# One day before transfection, mouse teratoma cells P19 were inoculated into a 24-well cell culture plate at a density of 1×10^5 cells/well, to make the cells grown to about 80% before transfection. A liposomal transfection reagent Entranster™-D from Engreen company was used to perform the transfection according to the instructions, to co-transfect the P19 cells with target plasmid (PGL3-Oct4P-Basic or pGL3-Basic) and reference plasmid (pCMV-β-gal). The total amount of the plasmid used for transfection was 1 μg/well (the target plasmid:the reference plasmid=2:1). The plasmid was added to 25 μL of serum-free DMEM culture medium, and fully mixed. 3 μL of the transfection reagent was then added to another 25 μL of serum-free DMEM culture medium, mixed well, and allowed to stand for 5 min. The DMEM culture medium containing the transfection reagent was then added to the DMEM culture medium containing the plasmid, and the mixture was immediately pipetted more than 10 times, and allowed to stand at room temperature for 30 min. 250 μL of DMEM culture medium containing 10% fetal calf serum was added to the mixed solution, and gently mixed well. The original cell culture medium in the 24-well plate was discarded, and replaced with the above mixed solution. After being cultured for 4-6 h in a 5% CO2 cell incubator at 37° C., the original culture medium was absorbed and removed, and replaced with 500 μL of DMEM culture medium containing 10% fetal calf serum. […] After subsequent continuous culture for 12-24 h, the cells were lysed, and the luciferase activity was assayed.
# Luciferase Reporter Assay System and FluoStar Optima were used to assay the luciferase activity of the transfected cell lysis solution. To 45 μL of the cell lysis solution was added 5 μL of Assay Cocktail reagent, after they were mixed well, 100 μL of Luciferin reaction solution was added, and fluorescence counting in 2 s was measured using FluoStar Optima instrument, which reflected the activity level of the studied plasmid reporter genes expressing firefly luciferase. To another 20 μL of the cell lysis solution was added 37.5 μL of β-gal Buffer followed by 12.5 μL of ONPG (6 mg/mL), and after they were mixed well, they were allowed to stand at 37° C. for 30 min. An absorption value at 450 nm was assayed using a microplate reader, which reflected the activity level of internal reference plasmid pCMV-β-gal expressing β-galactosidase. The ratio between the activity of the firefly luciferase and the activity of the β-galactosidase (β-gal) excluded the difference of the sample transfection efficiency, and could relatively objectively reflect the difference of promoter activity between samples. The relative luciferase activity of different samples was calculated through the following equation: […]
row,SMILES,effect of derivatives on the activity of the Oct4 promoter (relative luciferase activity)
1,COc1ccc(C=CC(=O)OCc2cccc(COC(=O)C=Cc3ccc(OC)cc3)c2)cc1 [3-[3-(4-methoxyphenyl)acryloyloxymethyl]benzyl 3-(4-methoxyphenyl)acrylate],have the effect of enhancing the activity of the Oct4 promoter
2,CCCC=CC(=O)OCCCOC(=O)C=Cc1ccccc1 [3-cinnamoyloxypropyl 3-propylacrylate],have the effect of enhancing the activity of the Oct4 promoter
3,COc1ccc(C=CC(=O)OCC#CCOC(=O)C=Cc2ccc(OC)cc2)cc1 [4-[3-(4-methoxyphenyl)acryloyloxy]butyl-2-ynyl 3-(4-methoxyphenyl)acrylate],have the effect of enhancing the activity of the Oct4 promoter
4,O=C(/C=C/c1ccc(O)c(O)c1)O[C@@H]1C[C@](O)(C(=O)O)C[C@@H](O)[C@H]1O [chlorogenic acid],have the effect of enhancing the activity of the Oct4 promoter
5,CCOC(=O)C(=Cc1ccc(OC(C)=O)cc1)C(=O)OCC [diethyl 4-acetoxybenzylidenemalonate],have the effect of enhancing the activity of the Oct4 promoter
6,"CCOC(=O)C(C#N)=C(c1ccccc1)c1ccccc1 [ethyl 2-cyano-3,3-diphenylacrylate]",have the effect of enhancing the activity of the Oct4 promoter
7,CCOC(=O)C=Cc1ccccc1 [ethyl cinnamate],have the effect of enhancing the activity of the Oct4 promoter
8,CCOC(=O)c1cc2ccccc2[nH]1 [ethyl indole-2-carboxylate],have the effect of enhancing the activity of the Oct4 promoter
